Laboratory results as given in publication PMC8909834, “An Orally Bioavailable and Highly Efficacious Inhibitor of CDK9/FLT3 for the Treatment of Acute Myeloid Leukemia” (Cancers, 2022).

Experiments:
Assay in all cases: Kinase Hotspot radiolabel assay
Type in all cases: biochemical
Settings in all cases: read-out: % Residual Activity
STK32B/YANK2 = molecular target: T1, STK32B/YANK2 (Homo sapiens, UniProt Q9NY57)
T1 construct: purchased Reaction Biology Corporation (Kinase HotSpot)
How it was run: (§1)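 Percent inhibition is from a radiometric Hotspot assay at 1 µM compound. The panel spans 369 kinases, and Ki measurement follows for those inhibited over 90%.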

GLK/MAP4K3 = molecular target: T2, GLK/MAP4K3 (Homo sapiens, UniProt Q8IVH8)
T2 construct: purchased Reaction Biology Corporation (Kinase HotSpot)
T2 sequence (Q8IVH8 whole entry): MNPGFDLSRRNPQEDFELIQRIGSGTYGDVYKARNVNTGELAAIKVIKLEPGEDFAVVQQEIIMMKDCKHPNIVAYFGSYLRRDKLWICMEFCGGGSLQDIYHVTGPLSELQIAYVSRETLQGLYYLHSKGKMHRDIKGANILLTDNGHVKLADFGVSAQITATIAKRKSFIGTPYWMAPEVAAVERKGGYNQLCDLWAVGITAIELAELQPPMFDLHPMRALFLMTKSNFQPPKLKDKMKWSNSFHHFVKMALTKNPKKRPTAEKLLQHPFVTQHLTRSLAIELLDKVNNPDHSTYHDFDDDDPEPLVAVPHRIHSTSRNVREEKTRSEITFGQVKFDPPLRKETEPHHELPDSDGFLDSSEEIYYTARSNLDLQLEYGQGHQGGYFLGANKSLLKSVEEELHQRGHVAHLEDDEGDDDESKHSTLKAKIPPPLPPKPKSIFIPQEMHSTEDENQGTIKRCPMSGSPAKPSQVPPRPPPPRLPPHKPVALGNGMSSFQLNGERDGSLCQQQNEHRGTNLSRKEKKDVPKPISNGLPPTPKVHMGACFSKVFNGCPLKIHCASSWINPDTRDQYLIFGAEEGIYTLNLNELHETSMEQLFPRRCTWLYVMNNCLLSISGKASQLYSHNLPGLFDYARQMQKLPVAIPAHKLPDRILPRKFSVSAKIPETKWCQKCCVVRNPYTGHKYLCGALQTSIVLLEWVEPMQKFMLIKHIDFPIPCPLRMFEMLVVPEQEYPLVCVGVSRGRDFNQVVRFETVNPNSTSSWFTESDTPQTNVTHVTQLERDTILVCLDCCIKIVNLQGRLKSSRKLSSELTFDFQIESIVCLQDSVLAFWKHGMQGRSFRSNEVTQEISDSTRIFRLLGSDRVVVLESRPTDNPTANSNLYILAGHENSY
How it was run: as §1

DYRK2 = molecular target: T3, DYRK2 (Homo sapiens, UniProt Q92630)
T3 construct: purchased Reaction Biology Corporation (Kinase HotSpot)
How it was run: as §1

MYLK4 = molecular target: T4, MYLK4 (Homo sapiens, UniProt Q86YV6)
T4 construct: purchased Reaction Biology Corporation (Kinase HotSpot)
T4 sequence (Q86YV6 whole entry): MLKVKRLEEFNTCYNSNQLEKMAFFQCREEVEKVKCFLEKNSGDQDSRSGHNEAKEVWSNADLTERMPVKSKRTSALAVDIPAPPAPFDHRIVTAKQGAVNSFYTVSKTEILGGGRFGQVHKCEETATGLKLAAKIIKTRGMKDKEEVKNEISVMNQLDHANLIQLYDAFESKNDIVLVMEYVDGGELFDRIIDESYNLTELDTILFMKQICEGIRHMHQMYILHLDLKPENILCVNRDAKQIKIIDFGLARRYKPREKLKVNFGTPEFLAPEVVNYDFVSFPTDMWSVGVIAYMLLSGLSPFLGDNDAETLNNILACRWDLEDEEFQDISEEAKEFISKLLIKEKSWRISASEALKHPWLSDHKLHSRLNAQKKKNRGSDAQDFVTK
How it was run: as §1

MEK5 = molecular target: T5, MEK5 (Homo sapiens, UniProt Q13163)
T5 construct: purchased Reaction Biology Corporation (Kinase HotSpot)
How it was run: as §1

HIPK1 = molecular target: T6, HIPK1 (Homo sapiens, UniProt Q86Z02)
T6 construct: purchased Reaction Biology Corporation (Kinase HotSpot)
How it was run: as §1

ERK5/MAPK7 = molecular target: T7, ERK5/MAPK7 (Homo sapiens, UniProt Q13164)
T7 construct: purchased Reaction Biology Corporation (Kinase HotSpot)
How it was run: as §1

RSK2 = molecular target: T8, RSK2 (Homo sapiens, UniProt P51812)
T8 construct: purchased Reaction Biology Corporation (Kinase HotSpot)
How it was run: as §1

GSK3a = molecular target: T9, GSK3a (Homo sapiens, UniProt P49840)
T9 construct: purchased Reaction Biology Corporation (Kinase HotSpot)
How it was run: as §1

LIMK1 = molecular target: T10, LIMK1 (Homo sapiens, UniProt P53667)
T10 construct: purchased Reaction Biology Corporation (Kinase HotSpot)
How it was run: as §1

MKK7 = molecular target: T11, MKK7 (Homo sapiens, UniProt O14733)
T11 construct: purchased Reaction Biology Corporation (Kinase HotSpot)
T11 sequence (O14733 whole entry): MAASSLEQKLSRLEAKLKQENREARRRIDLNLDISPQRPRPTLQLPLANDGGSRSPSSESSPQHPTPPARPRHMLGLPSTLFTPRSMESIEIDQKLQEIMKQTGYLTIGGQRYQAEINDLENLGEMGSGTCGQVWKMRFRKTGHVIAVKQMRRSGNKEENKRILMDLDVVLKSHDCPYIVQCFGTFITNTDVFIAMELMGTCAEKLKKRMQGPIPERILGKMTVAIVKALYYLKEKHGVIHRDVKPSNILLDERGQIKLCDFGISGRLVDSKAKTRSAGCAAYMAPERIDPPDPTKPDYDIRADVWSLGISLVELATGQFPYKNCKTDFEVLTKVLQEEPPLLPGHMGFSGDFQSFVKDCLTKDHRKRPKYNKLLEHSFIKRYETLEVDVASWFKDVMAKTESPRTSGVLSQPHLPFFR
How it was run: as §1

ALK6/BMPR1B = molecular target: T12, ALK6/BMPR1B (Homo sapiens, UniProt O00238)
T12 construct: purchased Reaction Biology Corporation (Kinase HotSpot)
T12 sequence (O00238 14-502): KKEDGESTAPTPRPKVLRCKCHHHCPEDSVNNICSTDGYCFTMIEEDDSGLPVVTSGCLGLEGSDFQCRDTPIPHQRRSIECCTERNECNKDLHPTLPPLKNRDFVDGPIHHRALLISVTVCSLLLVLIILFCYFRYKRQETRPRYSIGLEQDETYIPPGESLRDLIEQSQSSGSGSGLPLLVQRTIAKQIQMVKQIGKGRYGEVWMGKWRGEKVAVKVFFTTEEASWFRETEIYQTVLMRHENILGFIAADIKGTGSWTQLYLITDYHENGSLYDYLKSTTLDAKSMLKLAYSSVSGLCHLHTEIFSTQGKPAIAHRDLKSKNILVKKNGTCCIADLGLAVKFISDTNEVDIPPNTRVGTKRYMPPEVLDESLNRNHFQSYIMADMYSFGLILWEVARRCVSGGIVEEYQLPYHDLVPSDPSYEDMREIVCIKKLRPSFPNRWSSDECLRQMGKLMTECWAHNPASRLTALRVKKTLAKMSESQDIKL
How it was run: as §1

WNK3 = molecular target: T13, WNK3 (Homo sapiens, UniProt Q9BYP7)
T13 construct: purchased Reaction Biology Corporation (Kinase HotSpot)
How it was run: as §1

NEK11 = molecular target: T14, NEK11 (Homo sapiens, UniProt Q8NG66)
T14 construct: purchased Reaction Biology Corporation (Kinase HotSpot)
How it was run: as §1

LIMK2 = molecular target: T15, LIMK2 (Homo sapiens, UniProt P53671)
T15 construct: purchased Reaction Biology Corporation (Kinase HotSpot)
How it was run: as §1

PLK4/SAK = molecular target: T16, PLK4/SAK (Homo sapiens, UniProt O00444)
T16 construct: purchased Reaction Biology Corporation (Kinase HotSpot)
How it was run: as §1

PAK3 = molecular target: T17, PAK3 (Homo sapiens, UniProt O75914)
T17 construct: purchased Reaction Biology Corporation (Kinase HotSpot)
T17 sequence (O75914 whole entry): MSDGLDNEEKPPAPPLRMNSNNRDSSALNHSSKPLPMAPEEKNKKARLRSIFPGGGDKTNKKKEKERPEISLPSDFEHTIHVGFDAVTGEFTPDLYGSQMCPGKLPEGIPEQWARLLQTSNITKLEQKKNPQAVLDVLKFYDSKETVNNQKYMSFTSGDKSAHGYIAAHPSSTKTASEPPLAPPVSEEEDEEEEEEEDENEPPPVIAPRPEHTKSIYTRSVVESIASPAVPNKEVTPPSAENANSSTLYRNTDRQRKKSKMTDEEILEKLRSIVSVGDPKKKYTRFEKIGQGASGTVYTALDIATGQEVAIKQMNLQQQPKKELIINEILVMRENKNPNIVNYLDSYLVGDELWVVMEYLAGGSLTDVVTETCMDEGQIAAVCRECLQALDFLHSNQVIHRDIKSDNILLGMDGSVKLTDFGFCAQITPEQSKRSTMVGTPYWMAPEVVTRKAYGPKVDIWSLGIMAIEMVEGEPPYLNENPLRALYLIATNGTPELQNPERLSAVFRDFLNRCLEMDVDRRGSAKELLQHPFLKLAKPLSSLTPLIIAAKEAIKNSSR
How it was run: as §1

MKK4 = molecular target: T18, MKK4 (Homo sapiens, UniProt P45985)
T18 construct: purchased Reaction Biology Corporation (Kinase HotSpot)
T18 sequence (P45985 whole entry): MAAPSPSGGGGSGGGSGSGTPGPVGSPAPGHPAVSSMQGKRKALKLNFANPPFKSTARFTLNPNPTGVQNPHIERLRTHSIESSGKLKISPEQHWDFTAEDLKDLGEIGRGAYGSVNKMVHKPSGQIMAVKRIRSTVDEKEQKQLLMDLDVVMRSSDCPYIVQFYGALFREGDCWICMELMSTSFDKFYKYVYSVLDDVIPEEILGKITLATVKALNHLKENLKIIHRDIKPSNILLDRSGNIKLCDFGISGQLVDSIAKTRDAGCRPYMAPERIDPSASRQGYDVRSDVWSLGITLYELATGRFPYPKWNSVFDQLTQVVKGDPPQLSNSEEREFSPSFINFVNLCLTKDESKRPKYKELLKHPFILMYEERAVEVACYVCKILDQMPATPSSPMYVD
How it was run: as §1

PKG1a = molecular target: T19, PKG1a (Homo sapiens, UniProt Q13976)
T19 construct: purchased Reaction Biology Corporation (Kinase HotSpot)
How it was run: as §1

PKD2/PRKD2 = molecular target: T20, PKD2/PRKD2 (Homo sapiens, UniProt Q9BZL6)
T20 construct: purchased Reaction Biology Corporation (Kinase HotSpot)
How it was run: as §1

NIM1 = molecular target: T21, NIM1 (Homo sapiens, UniProt Q8IY84)
T21 construct: purchased Reaction Biology Corporation (Kinase HotSpot)
T21 sequence (Q8IY84 whole entry): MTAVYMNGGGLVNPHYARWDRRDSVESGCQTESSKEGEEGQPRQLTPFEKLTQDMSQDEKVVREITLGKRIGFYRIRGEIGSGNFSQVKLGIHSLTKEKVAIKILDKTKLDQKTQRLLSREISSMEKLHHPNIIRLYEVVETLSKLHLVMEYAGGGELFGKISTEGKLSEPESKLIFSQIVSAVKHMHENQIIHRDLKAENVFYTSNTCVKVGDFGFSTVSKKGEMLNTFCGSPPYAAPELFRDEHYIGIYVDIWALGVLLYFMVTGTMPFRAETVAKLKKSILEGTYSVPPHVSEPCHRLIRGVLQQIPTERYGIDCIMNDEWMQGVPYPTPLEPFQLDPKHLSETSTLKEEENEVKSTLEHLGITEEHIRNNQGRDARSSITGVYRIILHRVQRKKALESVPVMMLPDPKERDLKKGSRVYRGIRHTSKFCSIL
How it was run: as §1

BMX/ETK = molecular target: T22, BMX/ETK (Homo sapiens, UniProt P51813)
T22 construct: purchased Reaction Biology Corporation (Kinase HotSpot)
How it was run: as §1

BRSK1 = molecular target: T23, BRSK1 (Homo sapiens, UniProt Q8TDC3)
T23 construct: purchased Reaction Biology Corporation (Kinase HotSpot)
How it was run: as §1

PKCtheta = molecular target: T24, PKCtheta (Homo sapiens, UniProt Q04759)
T24 construct: purchased Reaction Biology Corporation (Kinase HotSpot)
How it was run: as §1

DYRK1B = molecular target: T25, DYRK1B (Homo sapiens, UniProt Q9Y463)
T25 construct: purchased Reaction Biology Corporation (Kinase HotSpot)
T25 sequence (Q9Y463 whole entry): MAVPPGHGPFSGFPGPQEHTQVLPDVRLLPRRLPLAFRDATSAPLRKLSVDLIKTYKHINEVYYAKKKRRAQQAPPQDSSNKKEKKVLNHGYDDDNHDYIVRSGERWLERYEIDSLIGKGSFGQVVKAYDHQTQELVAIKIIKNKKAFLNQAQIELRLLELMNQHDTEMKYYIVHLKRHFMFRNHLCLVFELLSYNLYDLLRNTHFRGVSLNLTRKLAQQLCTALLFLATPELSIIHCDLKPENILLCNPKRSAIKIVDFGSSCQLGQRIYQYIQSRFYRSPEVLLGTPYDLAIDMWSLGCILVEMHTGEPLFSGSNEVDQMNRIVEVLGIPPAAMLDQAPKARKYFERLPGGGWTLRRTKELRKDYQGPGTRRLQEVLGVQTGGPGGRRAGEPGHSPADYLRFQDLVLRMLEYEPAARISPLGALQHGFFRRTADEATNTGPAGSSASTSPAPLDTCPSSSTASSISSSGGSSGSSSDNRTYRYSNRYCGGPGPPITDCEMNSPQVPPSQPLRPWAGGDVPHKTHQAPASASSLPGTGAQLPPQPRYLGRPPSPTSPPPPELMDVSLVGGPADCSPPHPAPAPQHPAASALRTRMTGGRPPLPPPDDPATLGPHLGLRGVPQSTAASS
How it was run: as §1

STK16 = molecular target: T26, STK16 (Homo sapiens, UniProt O75716)
T26 construct: purchased Reaction Biology Corporation (Kinase HotSpot)
T26 sequence (O75716 whole entry): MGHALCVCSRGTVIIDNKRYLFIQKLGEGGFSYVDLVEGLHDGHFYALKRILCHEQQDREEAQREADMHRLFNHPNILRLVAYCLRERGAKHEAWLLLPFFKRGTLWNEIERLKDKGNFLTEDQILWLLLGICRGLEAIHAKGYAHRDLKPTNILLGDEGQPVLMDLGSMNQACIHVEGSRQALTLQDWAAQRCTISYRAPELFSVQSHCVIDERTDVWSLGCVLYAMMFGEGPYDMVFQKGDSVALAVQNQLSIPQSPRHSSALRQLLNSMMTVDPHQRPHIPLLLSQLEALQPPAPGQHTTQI
How it was run: as §1

AKT3 = molecular target: T27, AKT3 (Homo sapiens, UniProt Q9Y243)
T27 construct: purchased Reaction Biology Corporation (Kinase HotSpot)
How it was run: as §1

ROCK1 = molecular target: T28, ROCK1 (Homo sapiens, UniProt Q13464)
T28 construct: purchased Reaction Biology Corporation (Kinase HotSpot)
How it was run: as §1

IRAK4 = molecular target: T29, IRAK4 (Homo sapiens, UniProt Q9NWZ3)
T29 construct: purchased Reaction Biology Corporation (Kinase HotSpot)
T29 sequence (Q9NWZ3 whole entry): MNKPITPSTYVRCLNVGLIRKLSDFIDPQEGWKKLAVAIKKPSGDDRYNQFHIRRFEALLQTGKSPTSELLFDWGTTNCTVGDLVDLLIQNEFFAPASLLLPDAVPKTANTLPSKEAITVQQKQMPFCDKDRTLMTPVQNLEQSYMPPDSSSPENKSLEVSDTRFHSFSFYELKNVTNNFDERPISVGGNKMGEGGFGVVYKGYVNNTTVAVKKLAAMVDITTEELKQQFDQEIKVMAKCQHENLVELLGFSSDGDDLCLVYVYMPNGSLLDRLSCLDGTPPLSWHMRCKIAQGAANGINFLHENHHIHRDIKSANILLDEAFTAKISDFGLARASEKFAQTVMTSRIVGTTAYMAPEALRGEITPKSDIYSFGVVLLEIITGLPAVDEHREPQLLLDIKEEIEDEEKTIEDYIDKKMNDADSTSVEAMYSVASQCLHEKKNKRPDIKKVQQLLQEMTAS
How it was run: as §1

IRAK1 = molecular target: T30, IRAK1 (Homo sapiens, UniProt P51617)
T30 construct: purchased Reaction Biology Corporation (Kinase HotSpot)
How it was run: as §1

Compound `Cc1cnc(N[C@H]2CC[C@H](N)CC2)nc1-c1cnc2ccc(-c3ccccc3)cn12` [CDDD11-8] has a remaining activity at 1 µM (STK32B/YANK2) of 96.7%, a remaining activity at 1 µM (GLK/MAP4K3) of 9.75% and a remaining activity at 1 µM (DYRK2) of 12.7%. For the same compound, the remaining activity at 1 µM (MYLK4) was 11.5%, the remaining activity at 1 µM (MEK5) was 99.6% and the remaining activity at 1 µM (HIPK1) was 105%. For the same compound, the remaining activity at 1 µM (ERK5/MAPK7) was 93.3%, the remaining activity at 1 µM (RSK2) was 71% and the remaining activity at 1 µM (GSK3a) was 70.1%. It also gave a remaining activity at 1 µM (LIMK1) of 12.9%, a remaining activity at 1 µM (MKK7) of 95.4% and a remaining activity at 1 µM (ALK6/BMPR1B) of 105%. The remaining activity at 1 µM (WNK3) was 84%, the remaining activity at 1 µM (NEK11) was 100% and the remaining activity at 1 µM (LIMK2) was 93.8%. It also gave a remaining activity at 1 µM (PLK4/SAK) of 89.3%, a remaining activity at 1 µM (PAK3) of 87.5% and a remaining activity at 1 µM (MKK4) of 75.6%. For the same compound, the remaining activity at 1 µM (PKG1a) was 61.7%, the remaining activity at 1 µM (PKD2/PRKD2) was 62.7% and the remaining activity at 1 µM (NIM1) was 89.9%. For the same compound, the remaining activity at 1 µM (BMX/ETK) was 71.2%, the remaining activity at 1 µM (BRSK1) was 97.4% and the remaining activity at 1 µM (PKCtheta) was 46.2%. It also gave a remaining activity at 1 µM (DYRK1B) of 22.2%, a remaining activity at 1 µM (STK16) of 75.2% and a remaining activity at 1 µM (AKT3) of 77.2%. For the same compound, the remaining activity at 1 µM (ROCK1) was 76.3%, the remaining activity at 1 µM (IRAK4) was 59.2% and the remaining activity at 1 µM (IRAK1) was 91.9%.
